# Patent US20250145665A1, “MACROCYCLIC PEPTIDES USEFUL AS MODULATORS OF TNF ALPHA” (Bristol-Myers Squibb Company, priority 2023, published 2025)
# Like-named read-outs stand apart in the source and are kept apart here. Starred links: 1 amine or outer side, 2 acyl side, 3 side chain; linkers in the order of their positions; H or OH if unused. Positions of bridges follow the written chain, without caps; N, C: chain ends. Non-standard residues stand in square brackets, D forms with d. Residues, ends and D or L forms follow the SMILES beside them. *: point of attachment. Bip(4'-NHCO-C6H4-4-CH2COOH) = N[C@@H](Cc1ccc(-c2ccc(NC(=O)c3ccc(CC(=O)O)cc3)cc2)cc1)C(=O)O; Bip(4'-(3-HOOC-benzamido)) = N[C@@H](Cc1ccc(-c2ccc(NC(=O)c3cccc(C(=O)O)c3)cc2)cc1)C(=O)O; X5 = Cn1nc(C(=O)Nc2ccc(-c3ccc(C[C@H](N[*:1])C(=O)[*:2])cc3)cc2)c2ccccc21; dArg(Nω-CH2C6H4-3-CH2Gua) = N=C(N)NCc1cccc(CNC(=N)NCCC[C@@H](N)C(=O)O)c1; Bip(4'-NH) = O=C([C@H](Cc1ccc(-c2ccc(N[*:3])cc2)cc1)N[*:1])[*:2]; Bip(4'-CONHMe) = CNC(=O)c1ccc(-c2ccc(C[C@H](N)C(=O)O)cc2)cc1; Indazole3carbonyl(1-CH2COOH) = O=C(O)Cn1nc(C(=O)*)c2ccccc21; Bip(4'-COOH) = N[C@@H](Cc1ccc(-c2ccc(C(=O)O)cc2)cc1)C(=O)O; Bip(4'-NHAc) = CC(=O)Nc1ccc(-c2ccc(C[C@H](N)C(=O)O)cc2)cc1; Indole3carbonyl(1-CH2COOH) = O=C(O)Cn1cc(C(=O)*)c2ccccc21; X66 = N=C(NCCC[C@@H](N[*:1])C(=O)[*:2])NCc1ccc(F)c(F)c1; X6 = N=C(NCCCCC(N)=O)NCCC[C@@H](N[*:1])C(=O)[*:2]; Ala(imidazol-2-yl) = N[C@@H](Cc1ncc[nH]1)C(=O)O; Ala(morpholin-4-yl) = N[C@@H](CN1CCOCC1)C(=O)O; Phe(3-CONH2) = NC(=O)c1cccc(C[C@H](N)C(=O)O)c1; Bip = N[C@@H](Cc1ccc(-c2ccccc2)cc1)C(=O)O; 2Pal = N[C@@H](Cc1ccccn1)C(=O)O; Cha = N[C@@H](CC1CCCCC1)C(=O)O; Tle = CC(C)(C)[C@H](N)C(=O)O; Sar = CNCC(=O)O
# Target: TNFα (Homo sapiens, UniProt P01375)
# Experiment: TNF-Induced HEK-Blue Assay
# Assay type: cell-based
# [1] = HEK-Blue-CD40L cells, NF-kB-driven secreted alkaline phosphatase reporter, TNFα 0.5 ng/ml, 18 h, read-out: TNF induced HEK-Blue assay IC50 value
# Chain of TNFα (P01375 77-233 limits assumed): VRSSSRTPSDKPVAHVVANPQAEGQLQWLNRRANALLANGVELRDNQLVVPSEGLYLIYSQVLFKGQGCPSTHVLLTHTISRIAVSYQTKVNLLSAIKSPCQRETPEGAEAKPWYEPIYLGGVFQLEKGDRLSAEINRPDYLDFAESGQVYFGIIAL
IC50 [1] [nM],Structure (SMILES),IC50 [nM]
< 50,CC(=O)Nc1ccc(-c2ccc(C[C@@H]3NC(=O)[C@H](Cc4ccc(-c5ccc(C(=O)O)cc5)cc4)NC(=O)[C@H](CC4CCCCC4)NC(=O)CSC[C@@H](C(=O)NCC(N)=O)NC(=O)[C@H](CC(C)C)NC(=O)[C@H](Cc4cnc[nH]4)NC(=O)[C@H](C(C)C)NC(=O)[C@@H]4CCCN4C(=O)[C@H](C(C)C)NC(=O)[C@@H](CCCNC(=N)N)NC(=O)[C@H](CC(=O)O)NC(=O)[C@H](Cc4cnc[nH]4)NC(=O)CN(C)C3=O)cc2)cc1 [Example 234] ({CH2CO}-[Cha][Bip(4'-COOH)][Bip(4'-NHAc)][Sar]HD[dR]VPVHLCG-NH2; thioether N-13),
< 50,CC[C@H](C)[C@@H]1NC(=O)[C@@H]2CCCN2C(=O)[C@H]([C@@H](C)CC)NC(=O)[C@@H](CCCNC(=N)N)NC(=O)[C@H](CC(=O)O)NC(=O)[C@H](Cc2ccccn2)NC(=O)CN(C)C(=O)[C@H](Cc2ccc(-c3ccc(NC(=O)c4cccc(C(=O)O)c4)cc3)cc2)NC(=O)[C@H](Cc2ccc(-c3ccccc3)cc2)NC(=O)[C@H](C(C)(C)C)NC(=O)CSC[C@@H](C(=O)NCC(N)=O)NC(=O)[C@H](CC(C)C)NC(=O)[C@H](Cc2cccc(C(N)=O)c2)NC1=O [Example 368] ({CH2CO}-[Tle][Bip][Bip(4'-(3-HOOC-benzamido))][Sar][2Pal]D[dR]IPI[Phe(3-CONH2)]LCG-NH2; thioether N-13),
< 50,CC[C@H](C)[C@@H]1NC(=O)[C@@H](CCCNC(=N)N)NC(=O)[C@H](CC(=O)O)NC(=O)[C@H](Cc2cnc[nH]2)NC(=O)CN(C)C(=O)[C@H](Cc2ccc(-c3ccc(C(=O)NC)cc3)cc2)NC(=O)[C@H](Cc2ccc(-c3ccccc3)cc2)NC(=O)[C@H](CC2CCCCC2)NC(=O)CSC[C@@H](C(=O)NCC(N)=O)NC(=O)[C@H](CC(C)C)NC(=O)[C@H](Cc2cnc[nH]2)NC(=O)[C@H](C(C)C)NC(=O)[C@@H]2CCCN2C1=O [Example 396] ({CH2CO}-[Cha][Bip][Bip(4'-CONHMe)][Sar]HD[dR]IPVHLCG-NH2; thioether N-13),
< 50,CC[C@H](C)[C@@H]1NC(=O)[C@@H](CCCNC(=N)N)NC(=O)[C@H](CC(=O)O)NC(=O)[C@H](Cc2cnc[nH]2)NC(=O)CN(C)C(=O)[C@H](Cc2ccc(-c3ccc(NC(=O)c4ccc(CC(=O)O)cc4)cc3)cc2)NC(=O)[C@H](Cc2ccc(-c3ccc(C(=O)O)cc3)cc2)NC(=O)[C@H](CN2CCOCC2)NC(=O)CSC[C@@H](C(=O)NCC(N)=O)NC(=O)[C@H](CC(C)C)NC(=O)[C@H](Cc2cnc[nH]2)NC(=O)[C@H](C(C)C)NC(=O)[C@@H]2CCCN2C1=O [Example 487] ({CH2CO}-[Ala(morpholin-4-yl)][Bip(4'-COOH)][Bip(4'-NHCO-C6H4-4-CH2COOH)][Sar]HD[dR]IPVHLCG-NH2; thioether N-13),

# Further lines, the compound ahead of its results:
Structure (SMILES),IC50 [1] [nM],IC50 [nM]
CC(C)C[C@@H]1NC(=O)[C@H](Cc2cnc[nH]2)NC(=O)[C@H](C(C)C)NC(=O)[C@@H]2CCCN2C(=O)[C@H](C(C)C)NC(=O)[C@@H](CCCNC(=N)NCc2cccc(CNC(=N)N)c2)NC(=O)[C@H](CC(=O)O)NC(=O)[C@H](Cc2ccccn2)NC(=O)CN(C)C(=O)[C@H](Cc2ccc(-c3ccc(NC(=O)c4nn(CC(=O)O)c5ccccc45)cc3)cc2)NC(=O)[C@H](Cc2ccc(-c3ccccc3)cc2)NC(=O)[C@H](CN2CCOCC2)NC(=O)CSC[C@@H](C(=O)NCC(N)=O)NC1=O [Example 621] ({CH2CO}-[Ala(morpholin-4-yl)][Bip][Bip(4'-NH)](Indazole3carbonyl(1-CH2COOH))[Sar][2Pal]D[dArg(Nω-CH2C6H4-3-CH2Gua)]VPVHLCG-NH2; thioether N-13),,< 50
CC(C)C[C@@H]1NC(=O)[C@H](Cc2ncc[nH]2)NC(=O)[C@H](C(C)C)NC(=O)[C@@H]2CCCN2C(=O)[C@H](C(C)C)NC(=O)[C@@H](CCCNC(=N)NCc2cccc(CNC(=N)N)c2)NC(=O)[C@H](CC(=O)O)NC(=O)[C@H](Cc2ccccn2)NC(=O)CN(C)C(=O)[C@H](Cc2ccc(-c3ccc(NC(=O)c4cn(CC(=O)O)c5ccccc45)cc3)cc2)NC(=O)[C@H](Cc2ccc(-c3ccc(C(=O)O)cc3)cc2)NC(=O)[C@H](CC2CCCCC2)NC(=O)CSC[C@@H](C(=O)NCC(N)=O)NC1=O [Example 557] ({CH2CO}-[Cha][Bip(4'-COOH)][Bip(4'-NH)](Indole3carbonyl(1-CH2COOH))[Sar][2Pal]D[dArg(Nω-CH2C6H4-3-CH2Gua)]VPV[Ala(imidazol-2-yl)]LCG-NH2; thioether N-13),,< 50
CC(C)C[C@@H]1NC(=O)[C@H](CCCNC(=N)N)NC(=O)[C@H](C(C)C)NC(=O)[C@@H]2CCCN2C(=O)[C@H](C(C)C)NC(=O)[C@@H](CCCNC(=N)NCCCCC(N)=O)NC(=O)[C@H](CC(=O)O)NC(=O)[C@@H]2CCCN2C(=O)CN(C)C(=O)[C@H](Cc2ccc(-c3ccc(NC(=O)c4nn(C)c5ccccc45)cc3)cc2)NC(=O)[C@H](Cc2ccc(-c3ccccc3)cc2)NC(=O)[C@H](CN2CCOCC2)NC(=O)CSC[C@@H](C(=O)NCC(N)=O)NC1=O [Example 392] ({CH2CO}-[Ala(morpholin-4-yl)][Bip][X5][Sar]PD[X6]VPVRLCG-NH2; thioether N-13),50 to 200,
CC(C)C[C@@H]1NC(=O)[C@H](CCCNC(=N)N)NC(=O)[C@H](C(C)C)NC(=O)[C@@H]2CCCN2C(=O)[C@H](C(C)C)NC(=O)[C@@H](CCCNC(=N)NCc2ccc(F)c(F)c2)NC(=O)[C@H](CC(=O)O)NC(=O)[C@@H]2CCCN2C(=O)CN(C)C(=O)[C@H](Cc2ccc(-c3ccc(NC(=O)c4nn(C)c5ccccc45)cc3)cc2)NC(=O)[C@H](Cc2ccc(-c3ccccc3)cc2)NC(=O)[C@H](CN2CCOCC2)NC(=O)CSC[C@@H](C(=O)NCC(N)=O)NC1=O [Example 473] ({CH2CO}-[Ala(morpholin-4-yl)][Bip][X5][Sar]PD[X66]VPVRLCG-NH2; thioether N-13),< 50,
